Columns and labels:
Assay type in all cases: in vivo
Heliothis virescens = test: Tobacco budworm (Heliothis virescens) I, sprayed cotton plants; conditions: 96 h, Heliothis virescens larvae, 4 days after treatment, read-out: mortality in comparison with untreated controls
Method: B.6 Tobacco Budworm (Heliothis virescens) I
(§1) The active compounds were formulated in cyclohexanone as a 10,000 ppm solution supplied in tubes. The tubes were inserted into an automated electrostatic sprayer equipped with an atomizing nozzle and they served as stock solutions for which lower dilutions were made in 50% acetone:50% water (v/v). A nonionic surfactant (Kinetic®) was included in the solution at a volume of 0.01% (v/v).
Cotton plants were grown 2 plants to a pot and selected for treatment at the cotyledon stage. Test solutions were sprayed onto the foliage by an automated electrostatic plant sprayer equipped with an atomizing spray nozzle. The plants were dried in the sprayer fume hood and then removed from the sprayer. Each pot was placed into perforated plastic bags with a zip closure. About 10 to 11 budworm larvae were placed into the bag and the bags zipped closed. Test plants were maintained in a growth room at about 25° C. and about 20-40% relative humidity for 4 days, avoiding direct exposure to fluorescent light (24 hour photoperiod) to prevent trapping of heat inside the bags. Mortality and reduced feeding were assessed 4 days after treatment, compared to untreated control plants.

Ceratitis capitata = test: Mediterranean fruitfly (Ceratitis capitata), microtiter plate with insect diet and eggs; conditions: 120 h, egg and larval mortality after 5 days, read-out: mortality in comparison with untreated controls
Method: B.2 Mediterranean Fruitfly (Ceratitis capitata)
For evaluating control of Mediterranean fruitfly (Ceratitis capitata) the test unit consisted of microtiter plates containing an insect diet and 50-80 C. capitata eggs.
The compounds were formulated using a solution containing 75% v/v water and 25% v/v DMSO. Different concentrations of formulated compounds were sprayed onto the insect diet at 5 μl, using a custom built micro atomizer, at two replications. After application, microtiter plates were incubated at about 28±1° C. and about 80±5% relative humidity for 5 days. Egg and larval mortality was then visually assessed.

Anthonomus grandis = test: Boll weevil (Anthonomus grandis), microtiter plate with insect diet and eggs; conditions: 120 h, egg and larval mortality after 5 days, read-out: mortality in comparison with untreated controls
Method: B.7 Boll Weevil (Anthonomus grandis)
For evaluating control of boll weevil (Anthonomus grandis) the test unit consisted of 24-well-microtiter plates containing an insect diet and 20-30 A. grandis eggs.
The compounds were formulated using a solution containing 75% v/v water and 25% v/v DMSO. Different concentrations of formulated compounds were sprayed onto the insect diet at 20 μl, using a custom built micro atomizer, at two replications.
After application, microtiter plates were incubated at about 23±1° C. and about 50±5% relative humidity for 5 days. Egg and larval mortality was then visually assessed.

Plutella xylostella = test: Diamond back moth (Plutella xylostella), dipped Chinese cabbage leaves; conditions: mortality recorded 24, 72, and 120 hours after treatment, read-out: mortality in comparison with untreated controls
Method: If not otherwise specified the test solutions were prepared as follow:
The active compound was dissolved at the desired concentration in a mixture of 1:1 (vol:vol) distilled water:acteon. The test solution was prepared at the day of use and in general at concentrations of ppm (wt/vol).
B.1 Diamond Back Moth (Plutella xylostella)
Leaves of Chinese cabbage were dipped in test solution and air-dried. Treated leaves were placed in petri dished lined with moist filter paper. Mortality was recorded 24, 72, and 120 hours after treatment.

Spodoptera eridania = test: Southern armyworm (Spodoptera eridania), sprayed lima bean plants; conditions: 96 h, Spodoptera eridania larvae, 4 days after treatment, read-out: mortality in comparison with untreated controls
Method: B.4 Southern Armyworm (Spodoptera eridania)
as §1
Lima bean plants (variety Sieva) were grown 2 plants to a pot and selected for treatment at the 1st true leaf stage. Test solutions were sprayed onto the foliage by an automated electrostatic plant sprayer equipped with an atomizing spray nozzle. The plants were dried in the sprayer fume hood and then removed from the sprayer. Each pot was placed into perforated plastic bags with a zip closure. About 10 to 11 armyworm larvae were placed into the bag and the bags zipped closed. Test plants were maintained in a growth room at about 25° C. and about 20-40% relative humidity for 4 days, avoiding direct exposure to fluorescent light (24 hour photoperiod) to prevent trapping of heat inside the bags. Mortality and reduced feeding were assessed 4 days after treatment, compared to untreated control plants.

Myzus persicae = test: Green peach aphid (Myzus persicae), artificial diet under membrane, systemic; conditions: 72 h, Myzus persicae adults, 3 days, read-out: mortality in comparison with untreated controls
Source text: B.8 Green Peach Aphid (Myzus Persicae)
For evaluating control of green peach aphid (Myzus persicae) through systemic means the test unit consisted of 96-well-microtiter plates containing liquid artificial diet under an artificial membrane.
The compounds were formulated using a solution containing 75% v/v water and 25% v/v DMSO. Different concentrations of formulated compounds were pipetted into the aphid diet, using a custom built pipetter, at two replications.
After application, 5-8 adult aphids were placed on the artificial membrane inside the microtiter plate wells. The aphids were then allowed to suck on the treated aphid diet and incubated at about 23±1° C. and about 50±5% relative humidity for 3 days. Aphid mortality and fecundity was then visually assessed.

Bemisia argentifolii = test: Silverleaf whitefly (Bemisia argentifolii), sprayed cotton plants; conditions: 72 h, Bemisia argentifolii adults, 3 days after treatment, read-out: mortality in comparison with untreated controls
Source text: B.3 Silverleaf Whitefly (Bemisia argentifolii)
as §1
Cotton plants at the cotyledon stage (one plant per pot) were sprayed by an automated electrostatic plant sprayer equipped with an atomizing spray nozzle. The plants were dried in the sprayer fume hood and then removed from the sprayer. Each pot was placed into a plastic cup and about 10 to 12 whitefly adults (approximately 3-5 days old) were introduced. The insects were collected using an aspirator and a nontoxic Tygon® tubing connected to a barrier pipette tip. The tip, containing the collected insects, was then gently inserted into the soil containing the treated plant, allowing insects to crawl out of the tip to reach the foliage for feeding. Cups were covered with a reusable screened lid. […] Mortality was assessed 3 days after treatment, compared to untreated control plants.

Megoura viciae = test: Vetch aphid (Megoura viciae), broad bean leaf disks in microtiter plates; conditions: foliar, 120 h, Megoura viciae adults, 5 days, read-out: mortality in comparison with untreated controls
Method: B.5 Vetch aphid (Megoura viciae)
For evaluating control of vetch aphid (Megoura viciae) through contact or systemic means the test unit consisted of 24-well-microtiter plates containing broad bean leaf disks.
The compounds were formulated using a solution containing 75% v/v water and 25% v/v DMSO. Different concentrations of formulated compounds were sprayed onto the leaf disks at 2.5 μl, using a custom built micro atomizer, at two replications. After application, the leaf disks were air-dried and 5-8 adult aphids placed on the leaf disks inside the microtiter plate wells. The aphids were then allowed to suck on the treated leaf disks and incubated at about 23±1° C. and about 50±5% relative humidity for 5 days. Aphid mortality and fecundity was then visually assessed.

CC(=O)c1ccc(C2=NOC(c3cc(Cl)cc(Cl)c3)(C(F)(F)F)C2)cc1C (stereo not drawn) [Compound 1-1, 1-{4-[5-(3,5-Dichloro-phenyl)-5-trifluoromethyl-4,5-dihydro-isoxazol-3-yl]-2-methyl-phenyl}-ethanone]
≥ 75%: mortality at 2500 ppm (Heliothis virescens) | mortality at 2500 ppm (Ceratitis capitata) | mortality at 2500 ppm (Anthonomus grandis) | mortality at 300 ppm (Plutella xylostella) | mortality at 300 ppm (Spodoptera eridania) | mortality at 2500 ppm (Myzus persicae) | mortality at 300 ppm (Bemisia argentifolii) | mortality at 2500 ppm (Megoura viciae)

Cc1cc(C2=NOC(c3cc(Cl)cc(Cl)c3)(C(F)(F)F)C2)ccc1C(=O)CC(C)C (stereo not drawn) [Compound 1-2, 1-{4-[5-(3,5-Dichloro-phenyl)-5-trifluoromethyl-4,5-dihydro-isoxazol-3-yl]-2-methyl-phenyl}-3-methyl-butan-1-one]
≥ 75%: mortality at 2500 ppm (Heliothis virescens) | mortality at 2500 ppm (Ceratitis capitata) | mortality at 300 ppm (Plutella xylostella) | mortality at 300 ppm (Spodoptera eridania) | mortality at 2500 ppm (Myzus persicae) | mortality at 300 ppm (Bemisia argentifolii) | mortality at 2500 ppm (Megoura viciae)
